These results are taken from patent US7741344B2, “Process for preparing purified S-BEL and R-BEL and compositions thereof” (Washington University in St. Louis, priority 2002, dated 2010).

The test system of experiment [1] is PAP-1 in mouse P388D1 macrophages. Particulars: ≈25 μM; (33); cited from earlier work.
Experiment [2] has as its target T1, α-chymotrypsin (Bos taurus, UniProt P00766).
T1 construct: purchased Sigma
Kind of experiment: Inhibition of α-chymotrypsin by BEL. It counts as biochemical. Particulars: 2 μM chymotrypsin, up to 5-fold molar excess of inhibitor, 5 min 22° C., then 1000-fold dilution with 100 mM hydrazine; FIG. 3. The method, then: Inhibition of α-Chymotrypsin by BEL—The kinetics of α-chymotrrpsin inactivation by (R)-, (S)-, and rac-BEL were performed similar to methods previously described (36). The concentration of α-chymotrypsin (MW=25,000) was determined using an A^1%=20 (1 cm pathlength) at 280 nm (37). Briefly, one milliliter of α-chymotrypsin (2 μM) was incubated with up to a 5-fold molar excess of (R)-,(S)-, or rac-BEL dissolved in acetonitrile or vehicle alone for 5 mm at 22° C. in 0.1 M sodium phosphate buffer, pH 7.2. […] Following incubation at 22° C. for 1 hr, chymotrypsin activity in each diluted sample was measured utilizing a SPECTRAmax GeminiXS microplate spectrofluorometer with N-succinyl-Ala-Ala-Pro-Phe-7-amidomethylcoumarin (50 μM) as substrate for 1 mm at 25° C. Excitation and emission wavelengths were 380 nm and 460 nm, respectively.
Chymotrypsin (2 μM) in 0.1 M sodium phosphate buffer, pH 7.2 was incubated with the indicated concentrations of racemic, (R)-, or (S)-BEL for 5 mm. This solution was then diluted 1000-fold in 0.1 M sodium phosphate buffer, pH 7.2 containing 100 mM hydrazine and incubated for 1 hr at 22° C. Chymotrypsin proteolytic activity was measured spectrofluorometrically using N-succinyl-Ala-Ala-Pro-Phe-7-amido-4-methylcoumarin (50 μM) as substrate.

For the molecule `O=C1OC(=CBr)CCC1c1cccc2ccccc12` (racemic) [rac-BEL, Racemic (E)-6-(bromomethylene)-3-(1-naphthalenyl)-2H-tetrahydropyran-2-one], in experiment [1], the “inhibition of PAP-1 in mouse P388D1 macrophages” value is given as “effectively inhibit”. In the case of `O=C1O/C(=C/Br)CC[C@@H]1c1cccc2ccccc12` [(R)-BEL, (R)(E)-6-(bromomethylene)-3-(1-naphthalenyl)-2H-tetrahydropyran-2-one], the inhibition of chymotrypsin entry in experiment [2] was “stoichiometrically and irreversibly inhibited”.
